# Data as given in patent publication US20240366567A1, “PHARMACEUTICAL COMBINATIONS COMPRISING A KRAS G12C INHIBITOR AND USES THEREOF FOR THE TREATMENT OF CANCERS” (NOVARTIS AG, priority 2021, published 2024).
# Tests used:
# [1] = tested on: Ba/F3 cells expressing FLAG-KRAS G12C/H95Q; test: Ba/F3 proliferation, CellTiter-Glo, 3 days (Example 4); type: cell-based, murine; conditions: for % growth of treated cells relative to day 3 treatment: H95Q
# Description: (§1) The parental Ba/F3 cells were cultured in the presence of 5 ng/ml of recombinant murine IL-3 (Life Technologies, #PMC0035).
# (§2) The mutant plasmids were transfected into the Ba/F3 WT cells by electroporation with the NEON transfection kit (Invitrogen, #MPK10025).
# (§3) Ba/F3 cells are normally dependent on IL-3 to survive and proliferate, however, by expressing oncogenes they are able to switch their dependency from IL-3 to the expressed oncogene. […] Cell number and viability was measured every three days and after seven days the IL-3 withdrawal was completed.
# (§4) Treatment was performed on the same day with a Tecan D300e drug dispenser. Viability was detected on the same day of treatment for the start plate (Day 0) and three days post-treatment (Day 3) using the CellTiter-Glo Luminescent Cell Viability Assay (Promega, #G7573) on a Tecan infinitiy M200 Pro reader (Intergration Time 1000 ms).
# (§5) To determine the growth, the three days post-treatment (Day 3) readout was normalized to start plate (Day 0). The percentage viability was then calculated by normalizing treated wells to DMSO treated control samples. XLfit was used to make the fitted curve with a Sigmoidal Dose-Response Model (four-parameter curve) (FIG. 9).
# [2] = tested on: Ba/F3 cells expressing FLAG-KRAS G12C/Y96C; test: as above; type: cell-based, murine
# Description: as §1, §2, §3, §4, §5
# [3] = tested on: human KRAS G12C-mutated CRC PDX models; test: CRC patient-derived xenograft (PDX) panel; type: in vivo, nude mice; conditions: Compound A alone, 100 mg/kg QD oral
# Description: The antitumor efficacy of JDQ443±inhibitors of RAS-upstream or RAS-downstream signaling was evaluated in PDX panels of human KRAS G12C-mutated NSCLC and CRC.
# Patient-derived xenograft (PDX) models of human NSCLC and CRC were established by direct implantation of patient NSCLC or CRC tumor tissue subcutaneously into nude mice. PDX models were maintained through in vivo serial passaging.
# A cohort of mice was implanted subcutaneously with tumor fragments from each PDX model (typically passages 4-9). Ten NSCLC and nine CRC PDX models were used. Each model is named with a code, e.g. 30580-HX, 30581-HX etc, for identification and tracking purposes. Individual mice were assigned to treatment groups or control groups for dosing once their tumor volume reached 200-250 mm^3 (T=0, on the x-axis of the spider plots). One animal per PDX model was assigned to each treatment arm. Once enrolled into treatment arms, tumor volumes were measured twice weekly by caliper, and tumor volume was estimated in […] using the formula: Length×Width^2/2. The end of study per model was defined as minimum of 28 days treatment, or duration for untreated tumor to reach 1500 mm^3, or duration for 2 doublings of untreated tumor, whichever was slower.
# The Raf inhibitor (LXH254 (naporafenib)) was formulated as a suspension. […]
# patients = test: KontRASt-01 (NCT04699188) phase Ib, safety and tolerability; type: in vivo, human
# Description: The study is conducted to evaluate the antitumor efficacy, safety and tolerability of JDQ443 as a single agent and JDQ443 in combination with other agents.
structure (smiles),measurement,setting,value
"C=CC(=O)N1CC2(CC(n3nc(-c4ccc5c(cnn5C)c4)c(-c4c(Cl)c(C)cc5[nH]ncc45)c3C)C2)C1 (single isomer, unassigned) [Compound A, 1-{6-[(4M)-4-(5-Chloro-6-methyl-1H-indazol-4-yl)-5-methyl-3-(1-methyl-1H-indazol-5-yl)-1H-pyrazol-1-yl]-2-azaspiro[3.3]heptan-2-yl}prop-2-en-1-one]",% growth of treated cells relative to day 3 treatment,[1]; conc 0.000457 μM,100.054%
same,% growth of treated cells relative to day 3 treatment,[1]; conc 0.001372 μM,93.606%
same,% growth of treated cells relative to day 3 treatment,[1]; conc 0.004115 μM,103.375%
same,% growth of treated cells relative to day 3 treatment,[1]; conc 0.012346 μM,95.722%
same,% growth of treated cells relative to day 3 treatment,[1]; conc 0.037037 μM,93.319%
same,% growth of treated cells relative to day 3 treatment,[1]; conc 0.111111 μM,71.333%
same,% growth of treated cells relative to day 3 treatment,[1]; conc 0.333333 μM,36.908%
same,% growth of treated cells relative to day 3 treatment,[1]; conc 1 μM,6.635%
same,GI50,"[1]; Mus musculus, BaF3, 72 h, G12C/H95Q, 3 days, average of 4 independent experiments",284 ± 41 nM
same,% growth of treated cells relative to day 3 treatment,[2]; conc 0.000457 μM,109.116%
same,% growth of treated cells relative to day 3 treatment,[2]; conc 0.001372 μM,102.424%
same,% growth of treated cells relative to day 3 treatment,[2]; conc 0.004115 μM,105.515%
same,% growth of treated cells relative to day 3 treatment,[2]; conc 0.012346 μM,96.167%
same,% growth of treated cells relative to day 3 treatment,[2]; conc 0.037037 μM,104.222%
same,% growth of treated cells relative to day 3 treatment,[2]; conc 0.111111 μM,102.592%
same,% growth of treated cells relative to day 3 treatment,[2]; conc 0.333333 μM,91.765%
same,% growth of treated cells relative to day 3 treatment,[2]; conc 1 μM,80.229%
same,anti-tumor response,[3],moderate anti-tumor response in a few models
same,Grade 4-5 TRAEs,"patients; 39 patients, all doses",no Grade 4-5 TRAEs
same,patients with Grade 3 TRAEs,"patients; 39 patients, all doses",4 pts
same,tolerability,"patients; 39 patients, 200 mg QD, 400 mg QD, 200 mg BID or 300 mg BID",generally well tolerated
same,"ALT increased (adverse event), All grades",patients; JDQ443 200 mg BID (n = 11),0 n
same,"ALT increased (adverse event), Grade ≥3",patients; JDQ443 200 mg BID (n = 11),0 n
same,"AST increased (adverse event), All grades",patients; JDQ443 200 mg BID (n = 11),0 n
same,"AST increased (adverse event), Grade ≥3",patients; JDQ443 200 mg BID (n = 11),0 n
same,"Alopecia (adverse event), All grades",patients; JDQ443 200 mg BID (n = 11),0 n
same,"Alopecia (adverse event), Grade ≥3",patients; JDQ443 200 mg BID (n = 11),0 n
same,"Arthralgia (adverse event), Grade ≥3",patients; JDQ443 200 mg BID (n = 11),0 n
same,"Decreased appetite (adverse event), Grade ≥3",patients; JDQ443 200 mg BID (n = 11),0 n
same,"Diarrhea (adverse event), Grade ≥3",patients; JDQ443 200 mg BID (n = 11),0 n
same,"Dizziness (adverse event), Grade ≥3",patients; JDQ443 200 mg BID (n = 11),0 n
same,"Dry mouth (adverse event), All grades",patients; JDQ443 200 mg BID (n = 11),0 n
same,"Dry mouth (adverse event), Grade ≥3",patients; JDQ443 200 mg BID (n = 11),0 n
same,"Dry skin (adverse event), All grades",patients; JDQ443 200 mg BID (n = 11),0 n
same,"Dry skin (adverse event), Grade ≥3",patients; JDQ443 200 mg BID (n = 11),0 n
same,"ECG QT prolonged (adverse event), All grades",patients; JDQ443 200 mg BID (n = 11),0 n
same,"ECG QT prolonged (adverse event), Grade ≥3",patients; JDQ443 200 mg BID (n = 11),0 n
same,"Edema (adverse event), Grade ≥3",patients; JDQ443 200 mg BID (n = 11),0 n
same,"Fatigue (adverse event), Grade ≥3",patients; JDQ443 200 mg BID (n = 11),0 n
same,"Headache (adverse event), All grades",patients; JDQ443 200 mg BID (n = 11),0 n
same,"Headache (adverse event), Grade ≥3",patients; JDQ443 200 mg BID (n = 11),0 n
same,"Lipase increased (adverse event), Grade ≥3",patients; JDQ443 200 mg BID (n = 11),0 n
same,"Musculoskeletal stiffness (adverse event), All grades",patients; JDQ443 200 mg BID (n = 11),0 n
same,"Musculoskeletal stiffness (adverse event), Grade ≥3",patients; JDQ443 200 mg BID (n = 11),0 n
same,"Nausea (adverse event), Grade ≥3",patients; JDQ443 200 mg BID (n = 11),0 n
same,"Neuropathy peripheral (adverse event), All grades",patients; JDQ443 200 mg BID (n = 11),0 n
same,"Neuropathy peripheral (adverse event), Grade ≥3",patients; JDQ443 200 mg BID (n = 11),0 n
same,"Neutropenia (adverse event), All grades",patients; JDQ443 200 mg BID (n = 11),0 n
same,"Neutropenia (adverse event), Grade ≥3",patients; JDQ443 200 mg BID (n = 11),0 n
same,"Number of patients with at least one event, Grade ≥3",patients; JDQ443 200 mg BID (n = 11),0 n
same,"Photosensitivity reaction (adverse event), All grades",patients; JDQ443 200 mg BID (n = 11),0 n
same,"Photosensitivity reaction (adverse event), Grade ≥3",patients; JDQ443 200 mg BID (n = 11),0 n
same,"Pruritus (adverse event), Grade ≥3",patients; JDQ443 200 mg BID (n = 11),0 n
same,"Rash (maculopapular) (adverse event), Grade ≥3",patients; JDQ443 200 mg BID (n = 11),0 n
same,"Rash (pustular) (adverse event), All grades",patients; JDQ443 200 mg BID (n = 11),0 n
same,"Rash (pustular) (adverse event), Grade ≥3",patients; JDQ443 200 mg BID (n = 11),0 n
same,"Vomiting (adverse event), Grade ≥3",patients; JDQ443 200 mg BID (n = 11),0 n
same,"ALT increased (adverse event), Grade ≥3",patients; JDQ443 all patients (N = 39),0 n
same,"AST increased (adverse event), Grade ≥3",patients; JDQ443 all patients (N = 39),0 n
same,"Alopecia (adverse event), Grade ≥3",patients; JDQ443 all patients (N = 39),0 n
same,"Arthralgia (adverse event), Grade ≥3",patients; JDQ443 all patients (N = 39),0 n
same,"Decreased appetite (adverse event), Grade ≥3",patients; JDQ443 all patients (N = 39),0 n
same,"Diarrhea (adverse event), All grades",patients; JDQ443 all patients (N = 39),5 n
same,"Diarrhea (adverse event), Grade ≥3",patients; JDQ443 all patients (N = 39),0 n
same,"Dizziness (adverse event), Grade ≥3",patients; JDQ443 all patients (N = 39),0 n
same,"Dry mouth (adverse event), Grade ≥3",patients; JDQ443 all patients (N = 39),0 n
same,"Dry skin (adverse event), Grade ≥3",patients; JDQ443 all patients (N = 39),0 n
same,"ECG QT prolonged (adverse event), Grade ≥3",patients; JDQ443 all patients (N = 39),0 n
same,"Edema (adverse event), Grade ≥3",patients; JDQ443 all patients (N = 39),0 n
same,"Headache (adverse event), Grade ≥3",patients; JDQ443 all patients (N = 39),0 n
same,"Lipase increased (adverse event), Grade ≥3",patients; JDQ443 all patients (N = 39),0 n
same,"Musculoskeletal stiffness (adverse event), Grade ≥3",patients; JDQ443 all patients (N = 39),0 n
same,"Nausea (adverse event), Grade ≥3",patients; JDQ443 all patients (N = 39),0 n
same,"Neuropathy peripheral (adverse event), Grade ≥3",patients; JDQ443 all patients (N = 39),0 n
same,"Number of patients with at least one event, Grade ≥3",patients; JDQ443 all patients (N = 39),5 n
same,"Pruritus (adverse event), Grade ≥3",patients; JDQ443 all patients (N = 39),0 n
same,"Rash (maculopapular) (adverse event), Grade ≥3",patients; JDQ443 all patients (N = 39),0 n
same,"Rash (pustular) (adverse event), Grade ≥3",patients; JDQ443 all patients (N = 39),0 n
same,"Vomiting (adverse event), All grades",patients; JDQ443 all patients (N = 39),5 n
same,"Vomiting (adverse event), Grade ≥3",patients; JDQ443 all patients (N = 39),0 n
same,dose limiting toxicity (DLT),patients; patient treated at 300 mg BID,one DLT (Grade 3 fatigue)
same,treatment-related serious AE,patients; patient treated at 300 mg BID,one treatment-related serious AE (Grade 3 photosensitivity reaction)
